Assay results taken from patent US20250263771A1, “SYSTEM AND METHODS TO MEASURE CELL VIABILITY IN HIGH THROUGHPUT VIA CONTINUOUS GEOMETRY” (priority 2022, published 2025).
Where two headings read alike, the source gives them in different places.

Tests used:
[1] = tested on: E. coli, stationary phase and exponential phase; experiment: GVA viability screen of an 80-compound drug library, 96 well format; format: cell-based, Escherichia coli; details: treated for 4 hours, duplicate
Experimental: FIGS. 27A-B: Screen of compounds that affect viability in exponential and stationary phase using data from a GVA assay in 96 well format drug testing. The antibiotic potential of a drug library (80 compounds) was tested against exponential and stationary phase bacteria in duplicate. (A) Viability reduction of compounds in exponential (top) and stationary (bottom) phase cells. Each x is the mean of 2 biological replicates. (B) Scatter plot of the viability screen comparing exponential and stationary phase activity. Each blue dot represents the mean of 2 replicates of a compound treatment. Red dots represent DMSO controls. The dashed lines represent 3 times the standard deviation of the negative controls. Screen was performed with E. coli with both stationary phase and exponential phase bacterial populations. Both phases were screened in duplicate. 80 compounds and 16 controls were screened. Cells in stationary and exponential phase were treated with the compound for 4 hours, followed by casting into pipet tips using the GVA protocol.

[2] = tested on: cytoplasmic superoxide (ROS) in E. coli; experiment: Single-cell CellROX fluorescence (ROS levels) over time; format: cell-based, Escherichia coli; details: for effect on ROS (CellROX signal) over time: lethal dose, compared to untreated control
Experimental: (§1) Microscopy measurements: For all microscopy experiments, cells from overnight cultures were diluted 1:100 in minimal media (PMM) and shaken for 2 hours at 37° C. to ensure cells had exited lag phase. After 2 hours of growth, 2 μL of dilute cell culture was added to the top of a cooled, 200 μL 2% low melt agarose pad with CellROX dye (5 μM). The agarose pad was molded to fit in 96-well square bottom plates (Brooks Automation, MGB096-1-2-LG-L). After 10 minutes of drying, the pad with affixed cells was inverted and pressed into the bottom of an imaging plate. Fields of view (FOV) were selected manually on the microscope. After FOVs were selected and before the imaging started, the drug was added on top as done previously.

[3] = tested on: E. coli strain BW25113; experiment: Geometric Viability Assay (GVA) of drug-treated stationary and exponential E. coli cultures; format: cell-based, Escherichia coli; details: for activity in dose response, stationary versus exponential cultures (follow up of Enzo library hits): stationary and exponential cultures; for activity in aerobic versus anaerobic environments: stationary phase cells; for resistance of stationary phase cells compared with exponentially growing cells: 3 antibiotics, 6 concentrations, 5 durations; for reduction in viability: within an hour
Excerpt: Previous studies have found slow growth is a non-inheritable form of antibiotic tolerance buying time for viable cells to develop genetic resistance. Slow-growing cells commonly have reduced metabolic activity and DNA replication as compared to exponentially growing cells. As a result, slow-growing cells are refractory to antibiotics targeting DNA synthesis (fluoroquinolones), protein translation (aminoglycosides), and cell wall biogenesis (beta-lactams). Growth-dependent tolerance can only be observed by measuring viability but the tedium and cost of the drop CFU assay limits extensive profiling. Using GVA, Applicants directly compared the viability of exponentially growing cells and stationary phase cells to different doses of three antibiotics for varying amounts of time. In total, Applicants tested 3 antibiotics at 6 different concentrations for 5 different durations against stationary and exponential cells, in duplicate, for a total of 360 viability measurements (FIG. 5a,b).
To explore the GVA technique's potential for high throughput viability measurements, Applicants screened the ICCB Enzo Bioactive library (469 compounds) against stationary and exponentially growing cultures (FIG. 5c,d). […] The viability of BW25113 E. coli treated with the Enzo library was measured in both exponential and stationary phase. Including controls and removing pipette errors, 2267 conditions were measured. […] Mitomycin C is a known antibiotic acting through DNA cross-linking. […] Phentolamine is an α-adrenergic receptor antagonist.
(§2) For stationary phase treatments, bacterial cells were grown overnight (≥16 hours) in a shaking incubator (180 RPM). For P. putida only, cells were grown for 2 days. Upon entering the stationary phase, cells were distributed into a 96 well flat-bottom plates with 100 μL of cells per well. Drug treatments at 1000× were plated into a separate 96 well-round bottom plate. A 100 nL pin transfer was used to dilute the drug plate into the cell plate at a 1:1000 ratio. This plate was then placed into a shaking incubator for the experimental time. To measure antibiotic treatments in the exponential phase, overnight culture was diluted 1:1000 into fresh LB. This culture was then placed into the incubator for 2 hours. After this incubation, the cells were then distributed to the 96 well plate followed by drug treatment.
(§3) Embedding for GVA: The goal for embedding was to have a uniformly mixed sample in liquid hydrogel that would quickly solidify the 3D mold. Applicants used 0.5% agarose as a convenient hydrogel that would solidify quickly and prevent cell motility once solidified.

[4] = tested on: E. coli knockout mutants
Experimental: (§4) Strains and growth conditions: E. coli strain BW25113 was used unless otherwise noted in the text. This strain was acquired from the Yale Coli Genetic Stock Center. E. coli was grown in LB (Sigma Aldrich) at 37° C. in a shaking incubator. B. subtilis strain W168 was a kind gift from the Garner lab and was grown in LB at 37° C. in a shaking incubator. P. putida strain KT2440 was a kind gift from Jacob Fenster and was grown in LB at 30° C. in a shaking incubator. S. typhimurium strain SL1344 was a kind gift from the Corrie Detweiler and was grown in LB at 37° C. in a shaking incubator. S. cerevisiae strain BY4741 was a kind gift from Roy Parker and was grown in YEPD at 30° C. in a shaking incubator. P. aeruginosa strain PA01 was a kind gift from the Zemer Gitai and was grown in LB at 37° C. in a shaking incubator. Knockouts were selected from the Keio collection (Dharmacon). The PEC promoter library in E. coli was acquired from Dharmacon (PEC3877).
as §2, §3

[5] = tested on: stationary phase E. coli; details: for increase in viability as compared to either drug alone: 24 hours treatment
Experimental: as §2, §3

[6] = tested on: E. coli; details: 4 hours of treatment, less than 10 μg/mL DPI
Excerpt: (§5) Filamentation is a classic hallmark of SOS activation and increases in ROS are an established SOS activator. Therefore, Applicants wondered if DPI was activating SOS. Applicants examined the promoter activity of genes downstream of lexA using the PEC GFP-promoter library. LexA is a master transcriptional repressor of genes in the SOS regulon such as pol, dinB, dinG, and yjiH, and is auto-catalytically degraded by activated recA.
as §1

[7] = tested on: E. coli; details: DPI and ciprofloxacin, optical density over 8 hours
Excerpt: FIG. 6A-I: DPI generates ROS, activates the SOS response, and antagonizes ciprofloxacin. a) Median, single-cell CellROX signal as a function of time for DPI (blue), ciprofloxacin (orange), and an untreated control (yellow). b) Efficacy of DPI in aerobic and anaerobic conditions. […] Brightness and contrast is the same for all images. […] The dose response for the wild-type (WT) cells is depicted in green or purple, respectively. Shaded errorbars equal to the standard deviation in logspace between 3 replicates. […] Each square in the heatmap was the mean of duplicate conditions. Colorbar correspond to the log10 (CFUs/mL) for each dose combination. […] Optical density was measured for each condition over 8 hours and the integrated area under the growth curve (AUGC) is depicted (colorbar). i) Dose response curves for temporally staggered combinations. All treatments lasted for 24 hours total. Pretreated conditions were treated for 2 hours with a single drug followed by 22 hours with both drugs.
To test for antagonism, Applicants measured viability in a time-resolved, checkerboard assay using GVA (FIGS. 6f, 21). In the checkerboard assay, DPI was combined with either ciprofloxacin or gentamicin across a 6×6 dose matrix. The ease of GVA enabled sampling the checkerboard over time, resulting in a complete pharmacokinetic profile of the drug-drug interaction.

[8] = tested on: promoters of genes downstream of lexA (pol, dinB, dinG, yjiH, lexA)
Excerpt: as §5, §4, §1

[9] = tested on: S. typhimuirium; details: DPI crossed with ciprofloxacin or gentamicin
Experimental: as §4

[10] = 24 hours total, 2 hours single drug then 22 hours both drugs

Q: Which results are given for c1ccc2c(c1)[I+]c1ccccc1-2 [DPI, diphenyleneiodonium]?
A: activity in viability screen [1]: bactericidal activity; ROS after the initial decrease ([2]; lethal DPI dose): rapid spike in ROS; time to ROS nadir after the drug was added ([2]; lethal DPI dose): around 75 minutes; effect on ROS (CellROX signal) over time [2]: substantially decreased ROS; activity in dose response, stationary versus exponential cultures (follow up of Enzo library hits) [3]: active against both stationary and growing cultures; efficacy on adding a ROS scavenger (ascorbic acid) ([3]; increasing concentrations of ascorbic acid): reduced DPI efficacy; viability at intermediate concentrations ([3]; intermediate DPI concentrations, GVA): maintained viability; activity in aerobic versus anaerobic environments ([3]; 24 hours): less active in anaerobic cultures; potency in knockouts of other DNA repair enzymes, redox repair enzymes, or ROS scavengers ([4]; either growth phase): did not substantially change the potency; susceptibility of recA knockouts ([4]; recA knockout, stationary and exponential phases): more susceptible to DPI; potency in yedZ and fre knockouts ([4]; stationary cells): modestly increased the potency; effect of 2 hours DPI pretreatment before adding ciprofloxacin [5, 10]: further increased protection; effect of 2 hours ciprofloxacin pretreatment before DPI [5, 10]: reduced DPI's antagonistic effects; increase in viability as compared to either drug alone ([5]; DPI combined with ciprofloxacin): 1,000 fold; increase in viability as compared to either drug alone ([5]; DPI combined with gentamicin): 1,000 fold; cell morphology [6]: formation of bacterial filaments; antagonism in growth inhibition assay [7]: not observed; dinB, dinG, and yjiH promoter activity [8]: DPI-dependent increase; pol promoter activity ([8]; compared to a ribosomal protein control (rrnB)): persistent, dose-dependent induction; time to increased lexA promoter activity after DPI addition ([8]; lexA promoter): ≤ 90 min; dose giving the highest promoter activity ([8]; pol promoter, dose where filamentation was observed): 3 µg/mL; antagonism of ciprofloxacin and gentamicin [9]: also observed

Q: With Cc1cccc(CCN2CCC(C(=O)c3ccc(NS(C)(=O)=O)cc3)CC2)n1 [E-4031] as the molecule, how does the “activity in dose response, stationary versus exponential cultures (follow up of Enzo library hits)” value [3] read?
A: did not have any dose-dependent effect on viability

Q: For CC1(C)S[C@@H]2[C@H](NC(=O)C(C(=O)O)c3ccccc3)C(=O)N2[C@H]1C(=O)O (some centres unmarked) [carbenicillin], which “resistance of stationary phase cells compared with exponentially growing cells” value ([3]; GVA) is on record?
A: more resistant

Q: And the “change in viable cells” value ([3]; exponential cells, 10 μg/mL, after 24 hours treatment)?
A: increase in viable cells

Q: And the “change in number of colonies” value ([3]; exponential cells, 10 μg/mL, first 6 hours)?
A: no change in the number of colonies

Q: What about the decrease in viability ([3]; exponential cells, 100 μg/mL, 24 hours) of the same molecule?
A: 10,000 fold

Q: What about the decline in viability ([3]; stationary cells, 100 μg/mL, 24 hours) of the same molecule?
A: < 10 fold

Q: How did the “effect on ROS (CellROX signal) over time” value [2] turn out when O=C(O)c1cn(C2CC2)c2cc(N3CCNCC3)c(F)cc2c1=O [ciprofloxacin] was run?
A: monotonically increasing levels of ROS

Q: And the pharmacodynamic profile ([3]; 10 μg/mL, initial killing within an hour, stable through 6 hours, second phase by 24 hours)?
A: biphasic pharmacodynamic profile

Q: What about the “resistance of stationary phase cells compared with exponentially growing cells” value ([3]; GVA) of the same molecule?
A: more resistant

Q: What about the reduction in viability ([3]; exponentially growing cultures, 10 μg/mL) of the same molecule?
A: 10 fold

Q: What about the reduction in viability ([3]; stationary cultures, 10 μg/mL) of the same molecule?
A: 10 fold

Q: And the “activity in aerobic versus anaerobic environments” value ([3]; 24 hours)?
A: less active in anaerobic cultures

Q: CO[C@@]12[C@H](COC(N)=O)C3=C(C(=O)C(C)=C(N)C3=O)N1C[C@@H]1N[C@@H]12 [mitomycin C] was tested. Which “activity in viability screen” value [1] did it give?
A: bactericidal activity

Q: What about the “activity in dose response, stationary versus exponential cultures (follow up of Enzo library hits)” value [3] of the same molecule?
A: more active against exponentially growing cells compared to cells in stationary phase

Q: With NC(=Nc1ccccc1)NC(=O)c1nc(Cl)c(N)nc1N [phenamil] as the molecule, how does the “activity in dose response, stationary versus exponential cultures (follow up of Enzo library hits)” value [3] read?
A: did not have any dose-dependent effect on viability

Q: Cc1ccc(N(CC2=NCCN2)c2cccc(O)c2)cc1 [phentolamine] was tested. Which “sensitivity of stationary versus exponentially growing cells” value ([3]; high concentrations (20 μg/mL)) did it give?
A: stationary cells were more sensitive

Q: Which “resistance of stationary phase cells compared with exponentially growing cells” value ([3]; GVA) does the source give for gentamicin here?
A: more resistant

Q: And the “activity in aerobic versus anaerobic environments” value ([3]; 24 hours)?
A: less active in anaerobic cultures

Q: And the “reduction in stationary phase cell viability” value ([3]; stationary phase, 10 μg/mL, full 24 hours)?
A: > 10 fold
